Laboratory results from ChEMBL document CHEMBL5465560, “Selectivity Literature for EUbOPEN Chemogenomic Library” (2024).

Tests used:
[1] = molecular target: CDK12/Cyclin K (Homo sapiens) (UniProt O75909+Q9NYV4); test: Selectivity interaction (ProQinase) EUB0000171b CDK12; type: protein-complex assay; settings: at 1 µM
[2] = molecular target: Calcium/calmodulin-dependent protein kinase type II subunit alpha (Homo sapiens, UniProt Q9UQM7); test: Selectivity interaction (Kinase panel (KiNativ target engagement assay in Jurkat cells)) EUB0001635a CAMK2A; type: cell-based; settings: Selectivity number of off-targets 0.0, Selectivity number of targets 233.0, Source Knowledge https://www.sciencedirect.com/science/article/pii/S2451945619300674?via%3Dihub, at 1 µM
[3] = molecular target: T1, Mitogen-activated protein kinase kinase kinase kinase 2 (Homo sapiens) (UniProt Q12851); test: Selectivity interaction (Kinase panel (KiNativ target engagement assay in Jurkat cells)) EUB0001635a MAP4K2; type: cell-based; settings: Selectivity number of off-targets 0.0, Selectivity number of targets 233.0, Source Knowledge https://www.sciencedirect.com/science/article/pii/S2451945619300674?via%3Dihub, at 1 µM
T1 sequence (whole entry): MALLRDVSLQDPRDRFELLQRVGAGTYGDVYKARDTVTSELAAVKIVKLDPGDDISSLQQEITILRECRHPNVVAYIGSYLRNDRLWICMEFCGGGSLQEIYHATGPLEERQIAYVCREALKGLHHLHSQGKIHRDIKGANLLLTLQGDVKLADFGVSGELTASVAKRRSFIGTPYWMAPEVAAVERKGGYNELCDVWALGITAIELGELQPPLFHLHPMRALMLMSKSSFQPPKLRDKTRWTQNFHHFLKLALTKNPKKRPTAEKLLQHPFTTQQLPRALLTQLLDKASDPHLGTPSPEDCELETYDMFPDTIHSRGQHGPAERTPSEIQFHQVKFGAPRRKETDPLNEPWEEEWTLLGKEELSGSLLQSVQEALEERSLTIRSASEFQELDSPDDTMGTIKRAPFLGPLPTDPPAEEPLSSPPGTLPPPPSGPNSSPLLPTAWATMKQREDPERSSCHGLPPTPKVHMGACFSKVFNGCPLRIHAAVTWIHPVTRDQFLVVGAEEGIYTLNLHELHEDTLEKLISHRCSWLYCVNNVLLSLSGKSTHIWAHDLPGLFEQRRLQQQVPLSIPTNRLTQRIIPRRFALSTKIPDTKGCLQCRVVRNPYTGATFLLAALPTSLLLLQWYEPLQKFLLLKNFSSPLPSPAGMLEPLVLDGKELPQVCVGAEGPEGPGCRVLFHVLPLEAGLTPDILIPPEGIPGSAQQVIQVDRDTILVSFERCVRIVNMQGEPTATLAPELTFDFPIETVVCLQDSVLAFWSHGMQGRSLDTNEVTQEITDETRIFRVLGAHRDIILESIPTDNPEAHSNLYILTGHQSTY

[4] = molecular target: MAP/microtubule affinity-regulating kinase 3 (Homo sapiens) (UniProt P27448); settings: at 10 µM
[5] = molecular target: T2, STE20-related kinase adapter protein alpha (Homo sapiens) (UniProt Q7RTN6); test: Selectivity interaction (ActivX KiNativ screen (kinase selectivity in THP-1 cell lysates)) EUB0000639a STRADA; type: subcellular; settings: lysate, at 0.04 µM
T2 sequence (whole entry): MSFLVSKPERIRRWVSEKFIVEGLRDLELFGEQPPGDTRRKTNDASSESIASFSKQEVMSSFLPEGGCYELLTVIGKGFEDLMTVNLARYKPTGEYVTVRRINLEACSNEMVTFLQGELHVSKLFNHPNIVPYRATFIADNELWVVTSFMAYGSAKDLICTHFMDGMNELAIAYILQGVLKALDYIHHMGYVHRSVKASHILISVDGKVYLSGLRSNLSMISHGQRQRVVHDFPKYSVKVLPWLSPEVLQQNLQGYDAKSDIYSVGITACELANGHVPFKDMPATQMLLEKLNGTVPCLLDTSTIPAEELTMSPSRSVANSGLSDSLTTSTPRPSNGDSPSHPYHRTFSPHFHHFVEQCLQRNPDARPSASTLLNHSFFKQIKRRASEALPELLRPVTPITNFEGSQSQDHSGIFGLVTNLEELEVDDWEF

[6] = molecular target: Ribosomal protein S6 kinase alpha-1 (Homo sapiens, UniProt Q15418); test: Selectivity interaction (ActivX KiNativ screen (kinase selectivity in THP-1 cell lysates)) EUB0000639a RPS6KA1; type: subcellular; settings: lysate, at 0.2 µM
Focal adhesion kinase 1 = Focal adhesion kinase 1 (Homo sapiens, UniProt Q05397); test: Selectivity interaction (ActivX KiNativ screen (kinase selectivity in THP-1 cell lysates)) EUB0000639a PTK2; type: subcellular; settings: lysate, at 0.2 µM
[7] = molecular target: T3, NUAK family SNF1-like kinase 2 (Homo sapiens) (UniProt Q9H093); test: Selectivity interaction (KinomeScan (DiscoverX)) EUB0001049a NUAK2; settings: at 1 µM
T3 sequence (whole entry): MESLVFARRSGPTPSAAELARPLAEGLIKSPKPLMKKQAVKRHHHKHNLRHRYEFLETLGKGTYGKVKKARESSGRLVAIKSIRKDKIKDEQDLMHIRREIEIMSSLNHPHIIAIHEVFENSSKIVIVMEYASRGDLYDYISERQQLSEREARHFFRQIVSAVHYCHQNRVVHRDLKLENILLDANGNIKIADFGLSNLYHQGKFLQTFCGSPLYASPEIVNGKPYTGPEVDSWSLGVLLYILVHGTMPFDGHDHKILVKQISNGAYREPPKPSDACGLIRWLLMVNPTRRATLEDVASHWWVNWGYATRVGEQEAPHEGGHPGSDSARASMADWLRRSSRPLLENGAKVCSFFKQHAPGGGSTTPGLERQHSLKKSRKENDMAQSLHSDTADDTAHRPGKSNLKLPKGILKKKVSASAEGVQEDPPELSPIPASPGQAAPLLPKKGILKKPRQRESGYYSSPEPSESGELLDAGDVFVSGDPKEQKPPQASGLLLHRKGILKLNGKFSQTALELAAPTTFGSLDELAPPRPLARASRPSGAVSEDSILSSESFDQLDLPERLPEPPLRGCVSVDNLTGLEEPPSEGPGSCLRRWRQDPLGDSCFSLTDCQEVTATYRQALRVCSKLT

[8] = molecular target: Serine/threonine-protein kinase pim-3 (Homo sapiens) (UniProt Q86V86); test: Selectivity interaction (Ambit KINOMEscan and KiNATiv profiling in Jurkat cells) EUB0000090b PIM3; type: cell-based; settings: at 1 µM
[9] = molecular target: Serine/threonine-protein kinase RIO2 (Homo sapiens) (UniProt Q9BVS4); test: Selectivity interaction (Ambit KINOMEscan and KiNATiv profiling in Jurkat cells) EUB0000090b RIOK2; type: cell-based; settings: at 1 µM
Serine/threonine-protein kinase RIO2 (Homo sapiens), sequence (Q9BVS4 whole entry, looked up): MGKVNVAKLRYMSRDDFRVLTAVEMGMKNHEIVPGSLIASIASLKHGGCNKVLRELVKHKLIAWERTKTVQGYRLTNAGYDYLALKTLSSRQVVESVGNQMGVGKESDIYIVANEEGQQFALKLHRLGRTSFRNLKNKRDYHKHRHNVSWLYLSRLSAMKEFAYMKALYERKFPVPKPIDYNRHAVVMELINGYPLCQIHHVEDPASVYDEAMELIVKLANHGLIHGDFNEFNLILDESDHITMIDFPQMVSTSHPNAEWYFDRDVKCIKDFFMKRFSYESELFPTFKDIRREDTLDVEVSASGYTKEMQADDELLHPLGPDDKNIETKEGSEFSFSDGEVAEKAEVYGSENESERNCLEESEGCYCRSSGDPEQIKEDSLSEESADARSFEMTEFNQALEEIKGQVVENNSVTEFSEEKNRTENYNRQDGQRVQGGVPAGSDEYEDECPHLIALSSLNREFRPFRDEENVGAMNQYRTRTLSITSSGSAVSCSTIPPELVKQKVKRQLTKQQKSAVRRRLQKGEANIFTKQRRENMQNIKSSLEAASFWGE

Focal adhesion kinase 1, sequence (Q05397 2-1052 limits assumed): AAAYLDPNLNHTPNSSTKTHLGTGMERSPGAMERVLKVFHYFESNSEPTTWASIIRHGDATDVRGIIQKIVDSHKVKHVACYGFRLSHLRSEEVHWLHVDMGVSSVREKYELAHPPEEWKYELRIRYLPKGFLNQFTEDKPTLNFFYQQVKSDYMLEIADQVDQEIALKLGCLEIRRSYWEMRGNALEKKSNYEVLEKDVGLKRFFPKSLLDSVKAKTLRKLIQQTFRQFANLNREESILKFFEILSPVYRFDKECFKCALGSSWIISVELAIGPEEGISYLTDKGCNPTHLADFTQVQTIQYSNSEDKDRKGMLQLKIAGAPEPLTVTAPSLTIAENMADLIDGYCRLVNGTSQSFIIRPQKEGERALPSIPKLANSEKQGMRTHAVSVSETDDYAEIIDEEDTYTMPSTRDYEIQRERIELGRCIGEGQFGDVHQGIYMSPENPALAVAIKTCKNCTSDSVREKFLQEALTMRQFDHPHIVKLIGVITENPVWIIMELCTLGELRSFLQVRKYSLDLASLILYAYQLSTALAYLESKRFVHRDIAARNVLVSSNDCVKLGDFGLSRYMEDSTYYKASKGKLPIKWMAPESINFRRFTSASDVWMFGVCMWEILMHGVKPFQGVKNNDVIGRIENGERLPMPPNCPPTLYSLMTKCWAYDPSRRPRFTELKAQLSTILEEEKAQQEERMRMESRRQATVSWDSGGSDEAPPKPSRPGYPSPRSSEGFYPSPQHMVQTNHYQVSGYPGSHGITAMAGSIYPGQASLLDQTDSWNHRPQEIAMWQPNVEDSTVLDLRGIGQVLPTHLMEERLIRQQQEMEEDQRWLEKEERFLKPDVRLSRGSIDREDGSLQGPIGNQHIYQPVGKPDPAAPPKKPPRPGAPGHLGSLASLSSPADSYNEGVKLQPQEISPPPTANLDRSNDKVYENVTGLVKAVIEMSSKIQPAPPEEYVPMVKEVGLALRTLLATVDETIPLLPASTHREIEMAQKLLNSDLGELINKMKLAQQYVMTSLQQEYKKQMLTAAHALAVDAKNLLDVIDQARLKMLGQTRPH
MAP/microtubule affinity-regulating kinase 3 (Homo sapiens), sequence (P27448 whole entry, looked up): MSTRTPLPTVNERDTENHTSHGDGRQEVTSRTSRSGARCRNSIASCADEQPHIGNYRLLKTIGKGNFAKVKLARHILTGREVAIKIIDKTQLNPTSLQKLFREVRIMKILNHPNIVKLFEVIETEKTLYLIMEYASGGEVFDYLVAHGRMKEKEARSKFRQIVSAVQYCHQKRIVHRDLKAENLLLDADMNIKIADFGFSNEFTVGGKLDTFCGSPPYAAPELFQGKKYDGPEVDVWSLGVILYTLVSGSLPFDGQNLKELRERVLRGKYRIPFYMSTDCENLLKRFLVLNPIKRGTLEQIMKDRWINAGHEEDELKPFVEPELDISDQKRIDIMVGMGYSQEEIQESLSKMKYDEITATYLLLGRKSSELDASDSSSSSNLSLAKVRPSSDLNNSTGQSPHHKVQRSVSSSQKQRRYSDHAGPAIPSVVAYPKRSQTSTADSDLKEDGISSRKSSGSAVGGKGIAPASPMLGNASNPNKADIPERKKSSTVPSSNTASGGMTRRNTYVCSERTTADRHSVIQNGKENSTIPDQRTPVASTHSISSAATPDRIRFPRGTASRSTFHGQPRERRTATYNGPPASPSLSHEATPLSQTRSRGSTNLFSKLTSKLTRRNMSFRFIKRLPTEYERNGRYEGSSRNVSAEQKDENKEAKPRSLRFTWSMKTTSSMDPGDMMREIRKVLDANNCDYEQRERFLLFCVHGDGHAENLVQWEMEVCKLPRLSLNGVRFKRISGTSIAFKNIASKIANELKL
CDK12/Cyclin K (Homo sapiens), sequence (O75909 whole entry, looked up): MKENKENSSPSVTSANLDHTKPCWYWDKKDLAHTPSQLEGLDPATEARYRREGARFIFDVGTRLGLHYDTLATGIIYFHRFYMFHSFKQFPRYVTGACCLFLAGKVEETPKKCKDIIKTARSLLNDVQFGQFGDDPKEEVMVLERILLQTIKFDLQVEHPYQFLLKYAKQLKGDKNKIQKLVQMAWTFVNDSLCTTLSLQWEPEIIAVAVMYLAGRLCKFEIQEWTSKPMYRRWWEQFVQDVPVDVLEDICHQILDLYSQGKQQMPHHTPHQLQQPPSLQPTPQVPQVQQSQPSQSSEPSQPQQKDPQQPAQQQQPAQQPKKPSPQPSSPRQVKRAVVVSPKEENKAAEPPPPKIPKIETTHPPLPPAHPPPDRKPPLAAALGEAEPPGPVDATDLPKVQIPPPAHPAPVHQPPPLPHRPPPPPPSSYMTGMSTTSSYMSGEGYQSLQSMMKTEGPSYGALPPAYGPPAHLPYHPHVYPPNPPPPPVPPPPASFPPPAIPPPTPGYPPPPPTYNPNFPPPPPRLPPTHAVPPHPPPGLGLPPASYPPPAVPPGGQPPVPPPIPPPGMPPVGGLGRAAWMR
CDK12/Cyclin K (Homo sapiens), sequence (Q9NYV4 whole entry, looked up): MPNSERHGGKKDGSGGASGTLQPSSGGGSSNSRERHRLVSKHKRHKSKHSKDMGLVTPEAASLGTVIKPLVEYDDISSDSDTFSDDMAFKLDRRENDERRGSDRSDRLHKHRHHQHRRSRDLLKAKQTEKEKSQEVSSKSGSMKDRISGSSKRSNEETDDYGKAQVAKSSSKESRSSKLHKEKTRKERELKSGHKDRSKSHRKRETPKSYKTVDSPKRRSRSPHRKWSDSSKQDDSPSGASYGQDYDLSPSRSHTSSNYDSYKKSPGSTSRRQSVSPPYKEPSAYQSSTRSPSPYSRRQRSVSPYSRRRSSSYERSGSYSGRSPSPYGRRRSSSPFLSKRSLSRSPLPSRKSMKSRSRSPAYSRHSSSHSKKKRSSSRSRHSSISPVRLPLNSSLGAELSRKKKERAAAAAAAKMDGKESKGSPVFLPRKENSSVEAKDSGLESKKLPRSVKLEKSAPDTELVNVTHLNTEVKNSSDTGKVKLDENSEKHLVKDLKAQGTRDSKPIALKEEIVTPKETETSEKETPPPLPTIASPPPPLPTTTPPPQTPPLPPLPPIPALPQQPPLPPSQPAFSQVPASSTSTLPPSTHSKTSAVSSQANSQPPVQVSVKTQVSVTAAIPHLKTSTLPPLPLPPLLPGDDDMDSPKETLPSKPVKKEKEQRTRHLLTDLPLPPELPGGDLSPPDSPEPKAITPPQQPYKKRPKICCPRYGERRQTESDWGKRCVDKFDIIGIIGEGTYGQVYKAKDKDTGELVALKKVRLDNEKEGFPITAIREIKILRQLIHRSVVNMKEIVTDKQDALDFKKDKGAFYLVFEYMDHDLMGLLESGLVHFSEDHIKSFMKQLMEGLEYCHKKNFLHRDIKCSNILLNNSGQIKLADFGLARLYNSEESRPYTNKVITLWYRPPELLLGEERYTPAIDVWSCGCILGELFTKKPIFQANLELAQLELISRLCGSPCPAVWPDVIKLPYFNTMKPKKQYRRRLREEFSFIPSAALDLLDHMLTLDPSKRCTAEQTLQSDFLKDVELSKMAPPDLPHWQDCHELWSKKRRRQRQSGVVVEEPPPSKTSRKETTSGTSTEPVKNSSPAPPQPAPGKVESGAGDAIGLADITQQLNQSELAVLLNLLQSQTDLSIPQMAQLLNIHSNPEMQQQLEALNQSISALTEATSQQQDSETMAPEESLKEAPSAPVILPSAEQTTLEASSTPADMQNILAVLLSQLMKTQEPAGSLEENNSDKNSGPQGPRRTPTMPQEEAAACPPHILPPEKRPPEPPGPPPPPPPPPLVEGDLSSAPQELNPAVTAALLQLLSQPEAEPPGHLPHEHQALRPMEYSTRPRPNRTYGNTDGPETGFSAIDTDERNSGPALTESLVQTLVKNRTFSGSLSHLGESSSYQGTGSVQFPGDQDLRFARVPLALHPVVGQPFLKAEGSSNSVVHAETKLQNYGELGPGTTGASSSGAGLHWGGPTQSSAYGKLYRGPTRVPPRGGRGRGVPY
Calcium/calmodulin-dependent protein kinase type II subunit alpha, sequence (Q9UQM7 whole entry): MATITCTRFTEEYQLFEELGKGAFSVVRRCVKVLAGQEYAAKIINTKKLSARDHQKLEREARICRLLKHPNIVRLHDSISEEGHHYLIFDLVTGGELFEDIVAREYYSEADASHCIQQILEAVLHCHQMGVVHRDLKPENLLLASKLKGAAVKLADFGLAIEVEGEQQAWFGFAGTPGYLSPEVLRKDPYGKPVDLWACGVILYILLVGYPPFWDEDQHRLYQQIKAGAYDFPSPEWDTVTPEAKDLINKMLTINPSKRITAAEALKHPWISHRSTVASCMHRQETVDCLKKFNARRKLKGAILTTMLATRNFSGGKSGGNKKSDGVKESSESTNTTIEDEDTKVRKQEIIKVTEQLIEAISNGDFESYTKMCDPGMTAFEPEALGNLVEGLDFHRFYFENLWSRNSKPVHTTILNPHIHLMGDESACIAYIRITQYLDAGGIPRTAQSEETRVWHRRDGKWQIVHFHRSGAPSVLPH

## C=CC(=O)Nc1cccc(C(=O)Nc2ccc(Nc3cc(-c4[nH]c(SC)nc4C)ccn3)cc2)c1
[1]
  % of control: 82%

## C=CC(=O)Nc1ccc(C(=O)Nc2[nH]nc3c2CN(C(=O)N[C@H](CN(C)C)c2ccccc2)C3(C)C)cc1
[2]
  % of engagement: 24.5%
[3]
  % of engagement: -14.9%

## Cc1cc([C@@H](C)Nc2ccccc2C(=O)O)c2nc(N3CCOCC3)cc(=O)n2c1 [AZD-6482]
[4]
  % of control: 89%

## CC[C@@H]1[C@H](F)C(=O)N[C@@H]1COc1nccc2cc(C(N)=O)c(OC)cc12 [ZIMLOVISERTIB]
[5]
  % of inhibition: -6%
[6]
  % of inhibition: 10.3%
Focal adhesion kinase 1
  % of inhibition: 5.5%

## COc1cc(Nc2nc(C)cc(-c3cnn4nc(OC)ccc34)n2)cc(C(F)(F)F)c1
[7]
  % of control: 93%

## CN(C)C/C=C/C(=O)Nc1ccc(C(=O)N2CCCC(Nc3ncc(Cl)c(-c4c[nH]c5ccccc45)n3)C2)cc1 (stereo not given)
[8]
  % of control: 99%
[9]
  % of control: 10%
